Measurements as given in US20260226026A1, “COMPOUND AS CTPS1 INHIBITOR” (Hangzhou Innogate Pharma Co., Ltd., priority 2023, published 2026).

Test system: Jurkat cells
Assay: Inhibition of Jurkat cell proliferation (CellTiter-Glo, 72 hours)
Assay type: cell-based
Details: Homo sapiens; Jurkat cells, 72 hours, CellTiter-Glo; read-out: Jurkat (IC50)
Procedure: Select Jurkat cells in good growth condition and digest them with trypsin. Add fresh culture medium, mix thoroughly, and centrifuge at 1000 rpm for 5 minutes. Seed the cells into a 96-well plate at a density of 10,000 cells per well, and incubate overnight in a 37° C. incubator. On the following day, take out of the culture plate and treat the cells with compounds prepared in a five-fold serial dilution. Return the plate to the 37° C. incubator and continue incubation for 72 hours.
After incubation, bring out the cell culture plate and equilibrate it to room temperature. Add 100 μL of CellTiter-Glo reagent to each well, shake in the dark for 2 minutes, and incubate for 10 minutes. Measure the luminescence using an Enspire plate reader. Calculate the inhibition rate using the following formula: Inhibition rate (%)=(1−(RLU_compound−RLU_blank)/(RLU_DMSO−RLU_blank))×100%. Plot the dose-response curve and calculate the IC50 value using XLFit.

SMILES | IC50 [nM]
CCOc1cncc(-c2ccc(NC(=O)C3(c4ccnc(NS(=O)(=O)C5CC5)n4)CCN(C4CC(=C(F)F)C4)CC3)nc2)n1 (stereo not shown) [Compound 31] | < 50
CCOc1cncc(-c2ccc(NC(=O)C3(c4ccnc(NS(=O)(=O)C5CC5)n4)CCC(=CC4CCOCC4)CC3)nc2)n1 (stereo not shown) [Compound 32] | < 15
CCOc1cncc(-c2ccc(NC(=O)C3(c4ccnc(NS(=O)(=O)C5CC5)n4)CCC(=CC4COC4)CC3)nc2)n1 (stereo not shown) [Compound 36] | < 5
CCOc1cncc(-c2ccc(NC(=O)C3(c4ccnc(NS(=O)(=O)C5CC5)n4)CCC(=C(C)F)CC3)nc2)n1 (stereo not shown) [Compound 37] | < 30
CCOc1cncc(-c2ccc(NC(=O)C3(c4ccnc(NS(=O)(=O)C5CC5)n4)CCC(=C(F)CO)CC3)nc2)n1 (stereo not shown) [Compound 39] | < 15
CCOc1cncc(-c2ccc(NC(=O)C3(c4ccnc(NS(=O)(=O)C5CC5)n4)CCC(=CCCO)CC3)nc2)n1 (stereo not shown) [Compound 44] | < 15
CCOc1cncc(-c2ccc(NC(=O)C3(c4ccnc(NS(=O)(=O)C5CC5)n4)CCC(=CCCOC)CC3)nc2)n1 (stereo not shown) [Compound 45] | < 30
CCOc1cncc(-c2ccc(NC(=O)C3(c4ccnc(NS(=O)(=O)C5CC5)n4)CCC(=C(C)CO)CC3)nc2)n1 (stereo not shown) [Compound 47] | < 15
CCOc1cncc(-c2ccc(NC(=O)C3(c4ccnc(NS(=O)(=O)C5CC5)n4)CC(=CC4CCOCC4)C3)nc2)n1 (stereo not shown) [Compound 48] | < 30
CCOc1cncc(-c2ccc(NC(=O)C3(c4ccnc(NS(=O)(=O)C5CC5)n4)CCC(=C(F)CN4CCOCC4)CC3)nc2)n1 (stereo not shown) [Compound 54] | < 50
CCOc1cncc(-c2ccc(NC(=O)C3(c4ccnc(NS(=O)(=O)C5CC5)n4)CCC(=Cc4cccnc4)CC3)nc2)n1 (stereo not shown) [Compound 55] | < 50
CCOc1cncc(-c2ccc(NC(=O)C3(c4ccnc(NS(=O)(=O)C5CC5)n4)CCC(=CC4(C)COC4)CC3)nc2)n1 (stereo not shown) [Compound 62] | < 15
CCOc1cncc(-c2ccc(NC(=O)C3(c4ccnc(NS(=O)(=O)C5CC5)n4)CCC(=C(F)CC(C)(C)O)CC3)nc2)n1 (stereo not shown) [Compound 67] | < 50

Target: T1, hCTPS1 enzyme (Homo sapiens, UniProt P17812)
T1 sequence (P17812 1-591): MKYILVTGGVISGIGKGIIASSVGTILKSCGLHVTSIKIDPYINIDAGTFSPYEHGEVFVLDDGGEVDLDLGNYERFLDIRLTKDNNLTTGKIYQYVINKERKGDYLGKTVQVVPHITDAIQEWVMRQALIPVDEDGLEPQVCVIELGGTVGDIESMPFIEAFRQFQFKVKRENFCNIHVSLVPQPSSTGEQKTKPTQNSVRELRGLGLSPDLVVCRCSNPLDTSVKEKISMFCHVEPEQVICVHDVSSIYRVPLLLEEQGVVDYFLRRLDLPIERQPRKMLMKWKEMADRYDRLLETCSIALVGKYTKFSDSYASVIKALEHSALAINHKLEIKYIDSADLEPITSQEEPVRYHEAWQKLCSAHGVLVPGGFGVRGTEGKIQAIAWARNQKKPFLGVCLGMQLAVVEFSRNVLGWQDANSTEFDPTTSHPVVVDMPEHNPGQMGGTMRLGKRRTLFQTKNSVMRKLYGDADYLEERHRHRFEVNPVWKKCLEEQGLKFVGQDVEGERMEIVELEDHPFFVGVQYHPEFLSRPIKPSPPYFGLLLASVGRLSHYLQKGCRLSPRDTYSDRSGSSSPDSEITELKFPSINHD
Assay: Inhibition of CTPS1 enzyme activity (ADP-Glo method)
Assay type: biochemical
Details: hCTPS1, 90 min reaction at 25° C.
Procedure: The enzyme activity of CTPS1 was tested using the ADP-Glo method. Compounds were serially diluted in DMSO with 3-fold gradients across ten concentrations. Transfer 0.1 μL of diluted compound to a 384-well plate, centrifuge at 1000 rpm for 1 min. Add 2.5 μL of hCTPS1 enzyme working solution, centrifuge at 1000 rpm for 1 min, and incubate at 25° C. for 10 min. Add 2.5 μL of ATP & UTP solution and incubate at 25° C. for 10 min. Add 5 μL of substrate solution to initiate the reaction and incubate at 25° C. for 90 min. Add 10 μL of ADP-Glo solution to the 384-well plate, centrifuge at 1000 rpm for 1 min, incubate at 25° C. for 40 min, add 20 μL of detection solution, centrifuge at 1000 rpm for 1 min, and incubate at 25° C. for 60 min. […] were read using a BMG microplate reader. Inhibition rate (%) was calculated as follows: Inhibition rate (%)=[(DMSO control well signal−Compound well signal)/(DMSO control well signal−Blank control well signal)]×100%. IC50 values for compounds were analyzed by nonlinear regression in XLFit 5.5.0 software using the formula: Y=Bottom+(Top−Bottom)/(1+10^((LogIC50−X)*HillSlope)) where Y is the inhibition rate and X is the log value of compound concentration.

SMILES | IC50 [nM]
CCOc1cncc(-c2ccc(NC(=O)C3(c4ccnc(NS(=O)(=O)C5CC5)n4)CCN(C4CC(=C(F)F)C4)CC3)nc2)n1 (stereo not shown) [Compound 31] | < 100
CCOc1cncc(-c2ccc(NC(=O)C3(c4ccnc(NS(=O)(=O)C5CC5)n4)CCC(=CC4CCOCC4)CC3)nc2)n1 (stereo not shown) [Compound 32] | < 25
CCOc1cncc(-c2ccc(NC(=O)C3(c4ccnc(NS(=O)(=O)C5CC5)n4)CCC(=CC4COC4)CC3)nc2)n1 (stereo not shown) [Compound 36] | < 25
CCOc1cncc(-c2ccc(NC(=O)C3(c4ccnc(NS(=O)(=O)C5CC5)n4)CCC(=C(C)F)CC3)nc2)n1 (stereo not shown) [Compound 37] | < 25
CCOc1cncc(-c2ccc(NC(=O)C3(c4ccnc(NS(=O)(=O)C5CC5)n4)CCC(=C(F)CO)CC3)nc2)n1 (stereo not shown) [Compound 39] | < 25
CCOc1cncc(-c2ccc(NC(=O)C3(c4ccnc(NS(=O)(=O)C5CC5)n4)CCC(=CCCO)CC3)nc2)n1 (stereo not shown) [Compound 44] | < 25
CCOc1cncc(-c2ccc(NC(=O)C3(c4ccnc(NS(=O)(=O)C5CC5)n4)CCC(=CCCOC)CC3)nc2)n1 (stereo not shown) [Compound 45] | < 25
CCOc1cncc(-c2ccc(NC(=O)C3(c4ccnc(NS(=O)(=O)C5CC5)n4)CCC(=C(C)CO)CC3)nc2)n1 (stereo not shown) [Compound 47] | < 25
CCOc1cncc(-c2ccc(NC(=O)C3(c4ccnc(NS(=O)(=O)C5CC5)n4)CC(=CC4CCOCC4)C3)nc2)n1 (stereo not shown) [Compound 48] | < 100
CCOc1cncc(-c2ccc(NC(=O)C3(c4ccnc(NS(=O)(=O)C5CC5)n4)CCC(=C(F)CN4CCOCC4)CC3)nc2)n1 (stereo not shown) [Compound 54] | < 50
CCOc1cncc(-c2ccc(NC(=O)C3(c4ccnc(NS(=O)(=O)C5CC5)n4)CCC(=Cc4cccnc4)CC3)nc2)n1 (stereo not shown) [Compound 55] | < 25
CCOc1cncc(-c2ccc(NC(=O)C3(c4ccnc(NS(=O)(=O)C5CC5)n4)CCC(=CC4(C)COC4)CC3)nc2)n1 (stereo not shown) [Compound 62] | < 25
CCOc1cncc(-c2ccc(NC(=O)C3(c4ccnc(NS(=O)(=O)C5CC5)n4)CCC(=C(F)CC(C)(C)O)CC3)nc2)n1 (stereo not shown) [Compound 67] | < 50

Test system: not listed separately
Assay: in vivo
Design: species or system SD rats
Details: male, SD, rat, po, 2 mg/kg
Procedure: Instrumentation: SCIEX Triple Quad 6500+ triple quadrupole liquid chromatography-mass spectrometry system (LC-MS/MS), operating software is Analyst 1.7.2 (Applied Biosystems, USA); ExionLC liquid chromatography system; Microsoft Excel was used for data calculation and processing. Pharmacokinetic parameters were calculated using the statistical moment method with WinNonlin 8.2 software. Key kinetic parameters included Tmax, T1/2, Cmax, AUC0-24 h etc. Column: Synergi 4 μm Fusion-RP 80 Å Luna C18 2 mm*50 mm, 4 μm; Column temperature: 40° C.; Mobile phase A: Water (0.1% formic acid); Mobile phase B: Acetonitrile; Flow rate: 0.8 mL/min; Gradient elution is adopted, the elution gradient is 0.10 min: 15% B; 1.60 min: 95% B; 1.90 min: 95% B; 1.91 min: 15% B; 2.20 min: 15% B. Injection volume: 1 μL.
Animals: 3 male SD rats with a weight range of 200-220 g were purchased and kept in the laboratory of the Experimental Animal Center for 3 days and then used. They were fasted for 12 hours predose and 4 hours after dosing. Drinking water was free during the test. After the rats were gavage, blood samples were taken according to the established time point.
Solvent: 0.4% ethanol+0.4% Tween80+99.2% (0.5% methylcellulose M450). Preparation of the solution for intragastric administration: Compounds were accurately weighed and added to the solvent. The mixture was then subjected to vortex mixing and sonication until a homogeneous suspension was achieved, thereby preparing medicinal solutions of the desired concentrations.
Compound samples: Typically, multiple structurally analogous compounds (with molecular weights differing by more than 2 units) were accurately weighed and administered together (cassette PK). This approach allows for the simultaneous screening of multiple compounds and comparison of their oral absorption rates. Single compound administration was also employed to study the pharmacokinetics of drug samples in rats.
After intragastric administration, blood was collected from the jugular vein at 0.25, 0.5, 1, 2, 4, 8, 10 and 24 hours. Transfer 20 μL of plasma sample (for blank samples and internal standard blank samples, add 20 μL of blank plasma) to a 1.5 mL centrifuge tube, add 200 μL of internal standard solution (50% methanol in acetonitrile (concentration 100 ng/mL)) (for Double blank samples, add 200 μL of 50% methanol in acetonitrile solution). Vortex the samples for 5 minutes, then centrifuge at 14000 rpm and 4° C. for 5 minutes. Transfer 80 μL and add to 80 μL of water, mix uniformly, and submit for LC-MS/MS analysis.
The compounds were accurately weighed to prepare different concentrations, and quantitative analysis on mass spectrometry was performed to establish a standard curve, and then the concentration of the above-mentioned compound in the plasma was tested to obtain its concentration at different time points. All measurement data were collected and processed by relevant software, and the statistical moment method was used to calculate the pharmacokinetic parameters (mainly including kinetic parameters Tmax, T1/2, Cmax, AUC0-24 h etc).

SMILES | AUC(0-t) [ng·h/mL] | Cmax [ng/mL] | Tmax [h] | half-life [h]
CCOc1cncc(-c2ccc(NC(=O)C3(c4ccnc(NS(=O)(=O)C5CC5)n4)CCC(=C(F)CO)CC3)nc2)n1 (stereo not shown) [Compound 39] | 1470 | 837 | 1.33 | 2.48
CCOc1cncc(-c2ccc(NC(=O)C3(c4ccnc(NS(=O)(=O)C5CC5)n4)CCC(=CCCO)CC3)nc2)n1 (stereo not shown) [Compound 44] | 33 | 10.5 | 1.17 | 1.77
CCOc1cncc(-c2ccc(NC(=O)C3(c4ccnc(NS(=O)(=O)C5CC5)n4)CCC(=C(C)CO)CC3)nc2)n1 (stereo not shown) [Compound 47] | 1410 | 1820 | 0.25 | 2.01

Same assay, conditions: male, SD, rat, po, 3 mg/kg

SMILES | AUC(0-t) [ng·h/mL] | Cmax [ng/mL] | Tmax [h] | half-life [h]
CCOc1cncc(-c2ccc(NC(=O)C3(c4ccnc(NS(=O)(=O)C5CC5)n4)CCC(=CC4CCOCC4)CC3)nc2)n1 (stereo not shown) [Compound 32] | 15700 | 4020 | 0.83 | 1.34
CCOc1cncc(-c2ccc(NC(=O)C3(c4ccnc(NS(=O)(=O)C5CC5)n4)CCC(=CC4COC4)CC3)nc2)n1 (stereo not shown) [Compound 36] | 6250 | 3770 | 0.25 | 2.8
